# Laboratory results reported in patent US4576952A, “Pyrazolopyridine derivatives and their use as anti-inflammatory and/or anti-allergic agents” (Beecham Group p.l.c., priority 1984, dated 1986).
# Assays:
# mice = conditions: in mice; J. Heterocycl. Chem. 1971, 8(6), 1035-7; cited from earlier work
# [1] = test system: mouse sensitised to oxazolone; assay: Mouse Oxazolone Screen (topical anti-inflammatory activity); assay type: in vivo; conditions: ear, compound 1 h before oxazolone challenge, ear weights 24 h later, r^2 =0.96
# Protocol: Compounds were tested for topical anti-inflammatory activity in a screen using the mouse sensitised to oxazolone, by a method modified from that of Dietrich and Hess [Dietrich, F. M., and Hess, R., Int. Arch. Allergy, (1970), 38, 246-259].
# Mice were sensitised with oxazolone (2 mg in 20 μl ethanol) on a shaved area of the abdomen. Five days later, the animals received 10 μl THF/MeOH (1:1 v/v) on the right ear, and the test compound in the same solvent on the left ear. One hour later, the animals were challenged with 100 μg oxazolone in 10 μl acetone on each ear. Ear weights were measured 24 h later. Percentage inhibition of the inflammatory swelling refers to the increase in weight of left ears (oxazolone plus compound) compared with solvent-treated negative controls, as a proportion of the increase in weight of right ears (oxazolone alone) over similar controls.
# cantharidin mouse ear = assay: Mouse Cantharidin Screen (topical anti-inflammatory activity, mouse ear); assay type: in vivo; conditions: Mouse Cantharidin Data (24 h)
# Protocol: Compounds were tested for topical anti-inflammatory activity in a cantharidin mouse ear screen, modified from Swingle et al [Swingle, K. F., Reiter, M. J. and Schwartzmiller, D. H., Arch. Int. Pharmacodyn., (1981), 254, 168-176].
# 25 μg cantharidin (in 10 μl THF/MeOH) was applied to both ears. Compound, in the same solvent, was applied at the same time, to the left ear only. Ears were weighed 24 h after cantharidin application. Percentage inhibition of the acute inflammatory swelling refers to the increase in weight of left ears (cantharidin plus compound) compared with solvent-treated negative controls, as a proportion of the increase in weight of right ears (cantharidin alone) over similar controls.
# 5-Lipoxygenase = assay: RBL-1 5-Lipoxygenase Screen; assay type: biochemical; conditions: 20 μM; 10,000 g supernatant from RBL-1 cells, 29° C.
# Protocol: 5-Lipoxygenase enzyme was prepared as a 10,000 g supernatant from RBL-1 cells by the method of Jakschik [Jakschik, B. A., Sun, F. F., Lee, L. M. and Steinhoff, M. M., 1980, Biochem. Biophys. Res. Comm. 95, 103]. The 10,000 g supernatant was diluted with homogenization buffer to the equivalent of 1.5-2.5×10^7 cells ml^-1 and made 2 mM with respect to CaCl2. Aliquots of 0.5 ml were then dispensed into tubes, and incubated at 29° C. with 5 γl ethanol or compound in ethanol at the desired concentration for 2 min. Then [1-^14 C] arachidonic acid was added in buffer to give a final concentration of 6.3 μm and 0.2 μCi per incubation, and the reaction continued at 29° C. for 2 min. The reaction was terminated by adding 1 ml of acetone and cooling on ice, 0.5 ml of ice-cold saline and 10 μl of 2N formic acid were added, and the mixture was extracted with 2×2 ml of chloroform. The extract was stored under N2 at -20° C. until analysis by chromatography. Activity was measured as the percentage of total radioactivity found in 5-HETE and 5,12-diHETE, and inhibition calculated as the decrease in formation of the sum of these two species in compound-treated incubates relative to control incubates.
smiles,measurement,setting,value
CC(=O)N(C(C)=O)c1cc(C)nc2c(C)n[nH]c12 [compound wherein R is NAc2],CNS antidepressant activity,mice,CNS antidepressant activity
"Cc1cc(Nc2ccc(O)cc2)c2[nH]ncc2n1 [Example 4, 7-(4-Hydroxyanilino)-5-methyl-1H-pyrazolo[4,3-b]pyridine]",ED50,[1],240 μg/ear
same,% Inhibition,cantharidin mouse ear; 200 μg/ear,71%
same,"inhibition (decrease in formation of 5-HETE and 5,12-diHETE)",5-Lipoxygenase,66%
"Cc1cc(Nc2cccc(O)c2)c2[nH]ncc2n1 [Example 5, 7-(3-Hydroxyanilino)-5-methyl-1H-pyrazolo[4.3-b]pyridine]",% Inhibition,cantharidin mouse ear; 500 μg/ear,49%
"Cc1cc(Nc2ccc(C#N)cc2)c2[nH]ncc2n1 [Example 1, 7-(4-Cyanoanilino)-5-methyl-1H-pyrazolo[4,3-b]pyridine]",% Inhibition,cantharidin mouse ear; 300 μg/ear,29%
"Cc1cc(Nc2cccc(O)c2)c2c(cnn2C)n1 [Example 8, 1,5-Dimethyl-7-(3-hydroxyanilino)-1H-pyrazolo[4,3-b]pyridine]",% Inhibition,cantharidin mouse ear; 278 μg/ear,31%
